Results as given in the NIST ThermoML archive (doi:10.1016/j.jct.2013.08.016).
± gives the expanded uncertainty stated by the source.

Columns and labels:
[1] = refractive index (Na D-line) (dimensionless); conditions: 101.33 kPa, Liquid, Standard Abbe refractometry
[2] = 101.3 kPa, Liquid, Capillary tube (Ostwald / Ubbelohde) method
[3] = mn = molality of the nth substance listed, in mol/kg; conditions: 101.3 kPa, Liquid, m2 = 0; for viscosity: Capillary tube (Ostwald / Ubbelohde) method; for mass density: Pycnometric method; for speed of sound: Single path-length method
[4] = refractive index (Na D-line) (dimensionless); mn = molality of the nth substance listed, in mol/kg; conditions: 101.3 kPa, Liquid, Standard Abbe refractometry, m2 = 0

Structure (SMILES) | refractive index ([1]; 278.15 K) | refractive index ([1]; 288.15 K) | refractive index ([1]; 298.15 K) | viscosity ([2]; 278.15 K) [mPa·s] | viscosity ([2]; 288.15 K) [mPa·s] | viscosity ([2]; 298.15 K) [mPa·s] | viscosity ([3]; 278.15 K) [mPa·s] | mass density ([3]; 278.15 K) [kg/m3] | speed of sound ([3]; 278.15 K) [m/s] | viscosity ([3]; 288.15 K) [mPa·s] | viscosity ([3]; 298.15 K) [mPa·s] | refractive index ([4]; 278.15 K) | refractive index ([4]; 288.15 K) | refractive index ([4]; 298.15 K)
O [water] | 1.3339 ± 0.0005 | 1.3334 ± 0.0005 | 1.3325 ± 0.0005 | 1.519 ± 0.032 | 1.138 ± 0.025 | 0.8903 ± 0.019 | – | – | – | – | – | – | – | –
O [water] + O=C1O[C@H]([C@@H](O)CO)C([O-])=C1O.[Na+] | – | – | – | – | – | – | 1.519 ± 0.032 | 999.96 ± 0.38 | 1426.2 ± 2.2 | 1.138 ± 0.025 | 0.8903 ± 0.019 | 1.3339 ± 0.0005 | 1.3334 ± 0.0005 | 1.3325 ± 0.0005
O [water] + O=C1O[C@H]([C@@H](O)CO)C(O)=C1O | – | – | – | – | – | – | 1.519 ± 0.032 | 999.96 ± 0.37 | 1426.2 ± 2.2 | 1.138 ± 0.025 | 0.8903 ± 0.019 | 1.3339 ± 0.0005 | 1.3334 ± 0.0005 | 1.3325 ± 0.0005
